One experiment deals with Nitric oxide synthase 1 (Rattus norvegicus, UniProt P29476). Description: Inhibition of purified rat nNOS assessed as inhibition of nitric oxide-mediated oxidation of hemoglobin-A by hemoglobin capture assay.
Experiment [1] is described as follows: Selectivity ratio of Ki for purified mouse iNOS to Ki for purified rat nNOS.
The target of another experiment is T1, Nitric oxide synthase 3 (Bos taurus, UniProt P29473).
T1 sequence (P29473 whole entry): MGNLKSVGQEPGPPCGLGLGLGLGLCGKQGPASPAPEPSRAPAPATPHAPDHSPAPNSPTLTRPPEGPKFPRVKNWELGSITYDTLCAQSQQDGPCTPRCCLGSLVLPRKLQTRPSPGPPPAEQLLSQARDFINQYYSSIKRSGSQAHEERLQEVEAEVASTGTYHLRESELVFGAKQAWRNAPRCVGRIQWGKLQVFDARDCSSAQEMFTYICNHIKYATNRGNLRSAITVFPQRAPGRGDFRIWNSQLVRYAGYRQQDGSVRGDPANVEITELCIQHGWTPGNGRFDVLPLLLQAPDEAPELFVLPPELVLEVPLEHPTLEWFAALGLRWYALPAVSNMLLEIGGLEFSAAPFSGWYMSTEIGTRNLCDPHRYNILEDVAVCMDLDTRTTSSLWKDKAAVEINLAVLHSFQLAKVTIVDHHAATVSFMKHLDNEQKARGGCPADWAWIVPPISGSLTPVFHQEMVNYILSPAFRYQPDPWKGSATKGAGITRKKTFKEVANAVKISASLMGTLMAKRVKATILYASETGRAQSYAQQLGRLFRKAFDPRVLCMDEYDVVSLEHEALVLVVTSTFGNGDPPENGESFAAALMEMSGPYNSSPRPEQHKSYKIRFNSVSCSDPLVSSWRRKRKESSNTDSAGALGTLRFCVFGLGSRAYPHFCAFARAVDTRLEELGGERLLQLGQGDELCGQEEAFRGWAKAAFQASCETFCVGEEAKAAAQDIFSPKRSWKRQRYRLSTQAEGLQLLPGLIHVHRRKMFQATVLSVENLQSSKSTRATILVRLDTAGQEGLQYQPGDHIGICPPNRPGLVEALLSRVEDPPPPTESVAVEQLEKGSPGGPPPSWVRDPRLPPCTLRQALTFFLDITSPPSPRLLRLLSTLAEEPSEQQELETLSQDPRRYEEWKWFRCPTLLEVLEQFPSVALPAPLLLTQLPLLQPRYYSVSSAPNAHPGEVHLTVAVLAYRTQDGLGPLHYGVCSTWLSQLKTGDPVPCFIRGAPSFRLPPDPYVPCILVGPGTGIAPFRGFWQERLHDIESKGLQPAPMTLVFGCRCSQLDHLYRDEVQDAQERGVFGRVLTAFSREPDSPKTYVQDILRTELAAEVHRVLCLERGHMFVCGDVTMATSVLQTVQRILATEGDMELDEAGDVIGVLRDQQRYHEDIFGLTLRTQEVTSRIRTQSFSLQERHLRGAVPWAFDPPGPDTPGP
The experiment in a line: Inhibition of purified bovine eNOS assessed as inhibition of nitric oxide-mediated oxidation of hemoglobin-A by hemoglobin capture assay.

Experiment [2] is described as follows: Selectivity ratio of Ki for purified bovine eNOS to Ki for purified rat nNOS.
Experiment [3] concerns the target T2, Nitric oxide synthase, inducible (Mus musculus, UniProt P29477).
T2 sequence (P29477 whole entry): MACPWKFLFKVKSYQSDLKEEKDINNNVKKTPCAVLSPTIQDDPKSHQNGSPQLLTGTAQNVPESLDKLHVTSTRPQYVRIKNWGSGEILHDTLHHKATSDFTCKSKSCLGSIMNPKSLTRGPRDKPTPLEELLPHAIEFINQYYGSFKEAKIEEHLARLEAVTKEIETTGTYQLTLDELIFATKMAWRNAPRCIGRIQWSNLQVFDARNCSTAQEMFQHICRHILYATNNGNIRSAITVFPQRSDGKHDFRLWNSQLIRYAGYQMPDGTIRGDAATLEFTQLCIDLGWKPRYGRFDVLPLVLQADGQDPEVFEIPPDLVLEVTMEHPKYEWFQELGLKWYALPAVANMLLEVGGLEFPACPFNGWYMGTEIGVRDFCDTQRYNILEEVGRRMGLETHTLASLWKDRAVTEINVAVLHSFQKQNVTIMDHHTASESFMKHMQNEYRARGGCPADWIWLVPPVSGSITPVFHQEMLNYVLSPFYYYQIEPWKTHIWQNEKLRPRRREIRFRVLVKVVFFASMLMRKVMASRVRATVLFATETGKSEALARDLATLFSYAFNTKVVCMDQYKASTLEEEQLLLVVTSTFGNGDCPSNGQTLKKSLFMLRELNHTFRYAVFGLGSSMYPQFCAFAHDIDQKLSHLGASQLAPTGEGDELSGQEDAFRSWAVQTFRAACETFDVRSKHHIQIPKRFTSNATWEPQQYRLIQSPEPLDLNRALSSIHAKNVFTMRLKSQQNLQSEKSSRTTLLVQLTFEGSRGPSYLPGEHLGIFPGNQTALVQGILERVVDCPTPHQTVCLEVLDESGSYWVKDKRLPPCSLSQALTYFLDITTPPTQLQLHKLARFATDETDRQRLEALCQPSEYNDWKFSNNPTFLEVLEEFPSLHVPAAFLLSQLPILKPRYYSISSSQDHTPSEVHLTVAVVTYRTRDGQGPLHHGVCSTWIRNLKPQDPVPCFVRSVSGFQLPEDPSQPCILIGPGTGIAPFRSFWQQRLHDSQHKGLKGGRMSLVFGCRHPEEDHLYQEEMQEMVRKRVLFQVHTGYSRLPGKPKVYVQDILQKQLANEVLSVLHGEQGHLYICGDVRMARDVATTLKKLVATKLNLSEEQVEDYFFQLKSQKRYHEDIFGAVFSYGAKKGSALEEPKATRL
The experiment in a line: Inhibition of purified mouse iNOS assessed as inhibition of nitric oxide-mediated oxidation of hemoglobin-A by hemoglobin capture assay.

Sequence of Nitric oxide synthase 1 (P29476 whole entry): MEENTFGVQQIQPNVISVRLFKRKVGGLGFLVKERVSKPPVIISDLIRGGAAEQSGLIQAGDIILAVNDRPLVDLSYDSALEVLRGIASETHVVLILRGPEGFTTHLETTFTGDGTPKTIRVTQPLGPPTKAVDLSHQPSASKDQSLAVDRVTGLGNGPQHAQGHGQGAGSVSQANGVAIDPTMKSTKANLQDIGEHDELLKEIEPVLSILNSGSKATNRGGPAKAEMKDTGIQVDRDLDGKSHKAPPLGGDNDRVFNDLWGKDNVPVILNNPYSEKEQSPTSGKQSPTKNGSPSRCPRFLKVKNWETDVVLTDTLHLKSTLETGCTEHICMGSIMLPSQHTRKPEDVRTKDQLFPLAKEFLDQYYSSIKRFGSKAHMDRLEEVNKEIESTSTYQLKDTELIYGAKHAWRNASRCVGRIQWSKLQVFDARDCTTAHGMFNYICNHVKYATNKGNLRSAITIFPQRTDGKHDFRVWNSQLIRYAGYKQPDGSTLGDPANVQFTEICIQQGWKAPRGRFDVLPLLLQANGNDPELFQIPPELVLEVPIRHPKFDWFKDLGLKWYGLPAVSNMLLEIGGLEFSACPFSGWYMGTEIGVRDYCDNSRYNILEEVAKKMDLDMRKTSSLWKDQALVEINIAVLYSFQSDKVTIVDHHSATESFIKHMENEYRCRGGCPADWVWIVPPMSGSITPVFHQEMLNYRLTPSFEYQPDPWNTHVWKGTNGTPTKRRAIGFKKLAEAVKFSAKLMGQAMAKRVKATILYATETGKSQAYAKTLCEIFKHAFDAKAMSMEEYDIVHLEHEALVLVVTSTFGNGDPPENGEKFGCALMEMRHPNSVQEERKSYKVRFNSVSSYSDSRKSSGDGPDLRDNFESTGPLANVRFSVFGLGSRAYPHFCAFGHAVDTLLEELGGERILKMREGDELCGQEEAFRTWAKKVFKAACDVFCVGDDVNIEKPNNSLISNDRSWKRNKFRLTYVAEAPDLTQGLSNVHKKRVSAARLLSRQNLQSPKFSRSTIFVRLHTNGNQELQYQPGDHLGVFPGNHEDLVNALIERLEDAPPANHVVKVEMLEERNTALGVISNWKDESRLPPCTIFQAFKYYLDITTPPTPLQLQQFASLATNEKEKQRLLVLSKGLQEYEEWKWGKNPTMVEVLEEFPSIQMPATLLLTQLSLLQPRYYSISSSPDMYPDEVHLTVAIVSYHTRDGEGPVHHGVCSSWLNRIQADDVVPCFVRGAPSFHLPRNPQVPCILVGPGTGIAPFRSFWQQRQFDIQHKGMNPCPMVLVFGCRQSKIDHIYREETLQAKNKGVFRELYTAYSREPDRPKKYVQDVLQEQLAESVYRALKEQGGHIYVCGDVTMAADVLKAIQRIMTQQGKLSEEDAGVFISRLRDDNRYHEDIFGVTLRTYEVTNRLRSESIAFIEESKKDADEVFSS

Consider `Cc1cc(N)nc(CCc2cccc(C(O)Cc3cc(C)cc(N)n3)c2)c1` (configuration not stated), for which the inhibition constant (Ki) was 70 nM at Nitric oxide synthase 1, 3.61 µM at Nitric oxide synthase 3 and 5.99 µM in experiment [3]. For the same molecule, the Ratio Ki in experiment [1] was determined as 86; in experiment [2] it was 52.

Take `Cc1ccnc(CCc2cccc([C@H](N)Cc3cc(C)cc(N)n3)c2)c1`: the inhibition constant Ki on Nitric oxide synthase 3 is 1050 µM; in experiment [3] it was over 100 µM.

For `Cc1ccnc(CCc2cccc([C@@H](N)Cc3cc(C)cc(N)n3)c2)c1`, the Ratio Ki in experiment [1] is over 110; in experiment [2], 363. Further, the Ki in experiment [3] is over 100 µM.

Consider `Cc1cc(N)nc(CCc2cccc(C(CN)Cc3cc(C)cc(N)n3)n2)c1` (racemic), for which the inhibition constant (Ki) on Nitric oxide synthase 1 came out at 123 nM; in experiment [3], 17.9 µM.

Broadly, the Ki is a measure of affinity in units of concentration, obtained from inhibition or displacement.

The record behind these values is ChEMBL document CHEMBL3259595, “Nitric oxide synthase inhibitors that interact with both heme propionate and tetrahydrobiopterin show high isoform selectivity” (J Med Chem, 2014).
